Patent US20250176599A1, “FLAVOR COMPOSITION AND FOOD AND BEVERAGE” (TAKASAGO INTERNATIONAL CORPORATION, priority 2021, published 2025)

Experiments:
[1] = Sensory evaluation of aqueous solution VI containing 1,5-octadien-3-ol 10 ppb: off-flavor intensity and masking component intensity; conditions: aqueous solution VI, average panel score
Method in brief: (§1)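 Nootkatone added to degradation-component solutions in ion-exchanged water and scored by eight experienced panelists. Off-flavor rated 0–4 relative to unmasked solution (4) and plain water (0). Masking-component intensity rated on an absolute 0–4 scale.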

[2] = Overall conclusion of the sensory evaluation across aqueous solutions I to VI
Method in brief: as §1

[3] = Sensory evaluation of aqueous solution II containing (E)-2-octenal 10 ppb: off-flavor intensity and masking component intensity; conditions: average panel score
Method in brief: as §1

[4] = Sensory evaluation of aqueous solution III containing 1-octen-3-one 1 ppb: off-flavor intensity and masking component intensity; conditions: average panel score
Method in brief: as §1

[5] = Sensory evaluation of aqueous solution V containing 1-octen-3-ol 10 ppb: off-flavor intensity and masking component intensity; conditions: average panel score
Method in brief: as §1

[6] = Sensory evaluation of aqueous solution IV containing 1,5-octadien-3-one 100 ppt: off-flavor intensity and masking component intensity; conditions: aqueous solution IV, average panel score
Method in brief: as §1

[7] = Sensory evaluation of aqueous solution I containing (E)-2-nonenal 1 ppb: off-flavor intensity and masking component intensity; conditions: average panel score
Method in brief: as §1

CC1CCC(C(C)C)C(OCCO)C1 (centres unmarked) [2-menthoxyethanol]
1.4: Masking Component Intensity ([5]; 100 ppb added) | Off-Flavor Intensity ([7]; 50 ppm added)
0.4: Masking Component Intensity ([5]; 1 ppb added)
3.8: Masking Component Intensity ([1]; 50 ppm added) | Masking Component Intensity ([3]; 100 ppm added) | Masking Component Intensity ([4]; 50 ppm added) | Masking Component Intensity ([5]; 100 ppm added) | Masking Component Intensity ([7]; 100 ppm added) | Off-Flavor Intensity ([7]; 100 ppt added)
2.4: Off-Flavor Intensity ([3]; 1 ppm added) | Off-Flavor Intensity ([4]; 1 ppm added) | Off-Flavor Intensity ([6]; 1 ppm added)
0.3: Masking Component Intensity ([1]; 100 ppt added) | Masking Component Intensity ([7]; 100 ppt added)
0.8: Masking Component Intensity ([3]; 1 ppb added) | Masking Component Intensity ([4]; 1 ppb added) | Masking Component Intensity ([7]; 10 ppb added)
1.8: Masking Component Intensity ([1]; 100 ppb added) | Masking Component Intensity ([4]; 100 ppb added) | Masking Component Intensity ([5]; 1 ppm added) | Off-Flavor Intensity ([5]; 50 ppm added) | Off-Flavor Intensity ([6]; 100 ppm added) | Off-Flavor Intensity ([7]; 10 ppm added)
1.3: Off-Flavor Intensity ([1]; 100 ppm added) | Off-Flavor Intensity ([3]; 100 ppm added) | Masking Component Intensity ([7]; 100 ppb added)
0.6: Masking Component Intensity ([1]; 1 ppb added) | Masking Component Intensity ([4]; 100 ppt added)
1.6: Masking Component Intensity ([3]; 100 ppb added) | Off-Flavor Intensity ([5]; 100 ppm added) | Masking Component Intensity ([6]; 100 ppb added) | Masking Component Intensity ([7]; 1 ppm added)
3.1: Off-Flavor Intensity ([4]; 1 ppb added) | Off-Flavor Intensity ([5]; 1 ppb added)
2.6: Off-Flavor Intensity ([1]; 100 ppb added) | Masking Component Intensity ([3]; 10 ppm added) | Off-Flavor Intensity ([5]; 10 ppb added) | Masking Component Intensity ([5]; 10 ppm added) | Masking Component Intensity ([6]; 10 ppm added)
0.1: Masking Component Intensity ([5]; 100 ppt added) | Masking Component Intensity ([6]; 100 ppt added)
2.5: Masking Component Intensity ([1]; 10 ppm added) | Off-Flavor Intensity ([3]; 100 ppb added) | Masking Component Intensity ([4]; 10 ppm added) | Off-Flavor Intensity ([4]; 100 ppb added) | Off-Flavor Intensity ([5]; 100 ppb added) | Off-Flavor Intensity ([6]; 100 ppb added) | Off-Flavor Intensity ([7]; 1 ppm added)
0.5: Masking Component Intensity ([3]; 100 ppt added) | Masking Component Intensity ([5]; 10 ppb added) | Masking Component Intensity ([6]; 1 ppb added) | Masking Component Intensity ([7]; 1 ppb added)
1.5: Off-Flavor Intensity ([1]; 50 ppm added) | Off-Flavor Intensity ([3]; 50 ppm added)
3.0: Off-Flavor Intensity ([6]; 10 ppb added) | Off-Flavor Intensity ([7]; 10 ppb added)
1.9: Off-Flavor Intensity ([1]; 10 ppm added) | Masking Component Intensity ([4]; 1 ppm added) | Off-Flavor Intensity ([6]; 50 ppm added)
3.4: Off-Flavor Intensity ([1]; 100 ppt added) | Masking Component Intensity ([3]; 50 ppm added) | Off-Flavor Intensity ([3]; 100 ppt added) | Off-Flavor Intensity ([6]; 1 ppb added) | Masking Component Intensity ([6]; 50 ppm added) | Off-Flavor Intensity ([7]; 1 ppb added)
≤ 10 ppm: concentration that masks the off-flavor and does not affect the flavor of the food and/or beverage itself, upper limit [2]
2.8: Off-Flavor Intensity ([1]; 10 ppb added) | Off-Flavor Intensity ([7]; 100 ppb added)
1.1: Masking Component Intensity ([3]; 10 ppb added) | Masking Component Intensity ([4]; 10 ppb added)
2.0: Masking Component Intensity ([1]; 1 ppm added) | Off-Flavor Intensity ([1]; 1 ppm added) | Masking Component Intensity ([3]; 1 ppm added) | Off-Flavor Intensity ([3]; 10 ppm added) | Off-Flavor Intensity ([4]; 50 ppm added) | Off-Flavor Intensity ([4]; 100 ppm added)
≥ 10 ppb: concentration that masks the off-flavor and does not affect the flavor of the food and/or beverage itself, lower limit [2]
4.0: Masking Component Intensity ([1]; 100 ppm added)
3.3: Off-Flavor Intensity ([1]; 1 ppb added) | Off-Flavor Intensity ([3]; 1 ppb added) | Off-Flavor Intensity ([4]; 100 ppt added) | Off-Flavor Intensity ([5]; 100 ppt added)
1.0: Masking Component Intensity ([1]; 10 ppb added) | Masking Component Intensity ([6]; 10 ppb added) | Off-Flavor Intensity ([7]; 100 ppm added)
2.3: Off-Flavor Intensity ([4]; 10 ppm added) | Off-Flavor Intensity ([5]; 1 ppm added) | Off-Flavor Intensity ([5]; 10 ppm added) | Masking Component Intensity ([6]; 1 ppm added) | Off-Flavor Intensity ([6]; 10 ppm added) | Masking Component Intensity ([7]; 10 ppm added)
3.9: Masking Component Intensity ([4]; 100 ppm added) | Masking Component Intensity ([6]; 100 ppm added)
2.9: Off-Flavor Intensity ([3]; 10 ppb added) | Off-Flavor Intensity ([4]; 10 ppb added)
3.5: Masking Component Intensity ([5]; 50 ppm added) | Off-Flavor Intensity ([6]; 100 ppt added) | Masking Component Intensity ([7]; 50 ppm added)
